The results in this text go back to US12544395B2, “Combination compositions comprising a beta-lactamase inhibitor and uses thereof” (priority 2018, dated 2026).

Molecules are shown by their SMILES. Values after ≈ are worked out from the molar mass of the structure shown. Some results are limits rather than exact numbers.

The test system of data set [1] is panel of ESBL-producing Enterobacteriaceae (40 strains). The data set is described as follows: Broth microdilution MIC50/MIC90 summary over the panel. It is filed as cell-based. On the technique in general: Dilution methods test growth across graded concentrations, often in twofold steps.
A short description of data set [2]: Excipient screening: solubility in SEDDS excipients. In kind it is physicochemical. The conditions noted are these: thermodynamic from solid. The method, then: The solubility of Compound 1-ethanolate was evaluated in a series of pharmaceutically acceptable excipients that are commonly used to prepare self-emulsifying drug delivery systems (SEDDS) for oral drug delivery. This class of formulation results in a solid solution of drug substance and excipients that enable the delivery of the drug substance and prevents precipitation upon contact with aqueous environments (i.e. the stomach). The indicated quantity of Compound 1-ethanolate was weighed into a 3 mL screw top glass vial outfitted with a magnetic stir bar. The vial was transferred to a controlled temperature heating block and 100 μL aliquots of each excipient was added with stirring. After each addition, the sample was evaluated for dissolution of the drug substance and additional aliquots of excipient were added until a clear, colorless solution was obtained. Table 22 summarizes the solubility screening for 25 excipients.

On to `COCC1=C(C(=O)O)N2C(=O)[C@@H](NC(=O)/C(=N\OC)c3csc(N)n3)[C@H]2SC1` [Cefpodoxime, cefpodoxime, reference compound], for which, in data set [1] (read-out: Cefpodoxime MIC50), the MIC50 is greater than 32 µg/mL. For the same molecule, the MIC90 in data set [1] (read-out: Cefpodoxime MIC90) is greater than 32 µg/mL.
Take `CCOB1Oc2c(cccc2C(=O)OCOC(=O)C(CC)CC)C[C@@H]1NC(=O)CC` [Compound 1-ethanolate, ((2-ethylbutanoyl)oxy)methyl (R)-2-ethoxy-3-propionamido-3,4-dihydro-2H-benzo[e][1,2]oxaborinine-8-carboxylate]: the solubility in data set [2] (50 °C, oil or lipid, Labrafil M1944CS (Oleoyl polyoxyl-6 glycerides)) was greater than 140 mg/mL; in data set [2] (50 °C, oil or lipid, Labrafil M2125C5 (Linoleoyl polyoxyl-6 glycerides)) it was greater than 152 mg/mL; in data set [2] (50 °C, oil or lipid, Plurol Oleique CC497 (Polyglyceryl-3 dioleate)) it was greater than 375 mg/mL; in data set [2] (50 °C, organic solvent or mixture, Gelucire 44/14 (Lauroyl polyoxyl-32 glycerides)), greater than 284 mg/mL; in data set [2] (50 °C, organic solvent or mixture, Kolliphor EL (Polyoxyl 35 hydrogenated castor oil)) it was greater than 376 mg/mL; in data set [2] (50 °C, organic solvent or mixture, Kolliphor RH (PEG-40 Hydrogenated Castor Oil)), roughly 172 mg/mL (≈ 410 mM). For the same molecule, the solubility is greater than 585 mg/mL in data set [2] (50 °C, organic solvent or mixture, Labrasol (Caprylocaproyl polyoxyl-8 glycerides)); greater than 238 mg/mL in data set [2] (50 °C, organic solvent or mixture, Polysorbate 80 (Polyoxyethylene (20) sorbitan monooleate)); greater than 351 mg/mL in data set [2] (Capmul MCM (Caprylic/capric mono- & diglycerides), 50 °C, oil or lipid); greater than 568 mg/mL in data set [2] (Ethanol, 50 °C, organic solvent or mixture); less than 55.8 mg/mL in data set [2] (Glycerol, 50 °C, organic solvent or mixture); greater than 292 mg/mL in data set [2] (Lauroglycol (Propylene Glycol Monolaurate), neat excipient, 50 °C, oil or lipid). Besides, the solubility in data set [2] (Maisine CC (glyceryl monolinoleate), 50 °C, oil or lipid) was greater than 368 mg/mL; in data set [2] (Myrj 52 (PEG-40 Stearate), neat excipient, 50 °C, organic solvent or mixture) it was greater than 277 mg/mL; in data set [2] (PEG-400, 50 °C, organic solvent or mixture, PEG-400, 50° C.), greater than 498 mg/mL; in data set [2] (PEG-1500, 50 °C, organic solvent or mixture, PEG-1500, 50° C.), greater than 382 mg/mL; in data set [2] (PEG-3350, 65 °C, organic solvent or mixture, PEG-3350, 65° C.) it was greater than 280 mg/mL; in data set [2] (Peceol (Glyceryl monooleate), neat excipient, 50 °C, oil or lipid), greater than 413 mg/mL. Also, the solubility in data set [2] (Phosal 50 PG (50% PC and propylene glycol), 50 °C, oil or lipid) was greater than 419 mg/mL; in data set [2] (Poloxamer 188, neat excipient, 65 °C, organic solvent or mixture, Poloxamer 188), greater than 225 mg/mL; in data set [2] (Propylene Glycol, 50 °C, organic solvent or mixture), greater than 1210 mg/mL; in data set [2] (Span 20 (Sorbitan monolaurate), neat excipient, 50 °C, organic solvent or mixture) it was greater than 227 mg/mL; in data set [2] (Span 80, 50 °C, organic solvent or mixture, Span 80, 50° C.), greater than 276 mg/mL; in data set [2] (TPGS, neat excipient, 50 °C, organic solvent or mixture), greater than 229 mg/mL. Further, in data set [2] (Triacetin (glycerin triacetate), 50 °C, organic solvent or mixture), the solubility was greater than 84.2 mg/mL.

One may read the MIC50 as the lowest concentration that inhibits either 50% of growth or 50% of the strains tested, depending on the study. As usually defined, the MIC90 is the lowest concentration that inhibits either 90% of growth or 90% of the strains tested, depending on the study. The solubility is the concentration that dissolves in the medium under given conditions.
